Patent US11505548B2, “Heterocyclic compounds and their use for treatment of helminthic infections and diseases” (Celgene Corporation, priority 2019, dated 2022)

Test system: microfilariae of Dirofilaria immitis
Experiment: Dirofilaria immitis, Microfilaria (DiMF) Assay
Type: cell-based
Conditions: in vitro, stage (microfilaria or L4) not given, class A/B/C, read-out: D. immitis activity level (IC50 or MED)
Method: Heartworm Screen Dirofilaria immitis (D. immitis)
Dirofilaria immitis, Microfilaria (DiMF) Assay.
Compounds were dissolved and serially diluted in DMSO. Aliquots were spotted to the empty wells of assay plates. Media and microfilariae of Dirofilaria immitis were added to each well to dilute the test compounds to the desired concentrations. Assay plates were incubated for approximately 72 hours, and the larvae in each well were observed microscopically for drug effect. Microfilariae in each well were assessed subjectively for survival or paralysis, and results were reported as Minimum Effective Dose (MED).
Active and selective (DiL4 vs. DiMF potency) example compounds were subsequently evaluated in heartworm positive dog studies to correlate the in vitro selectivity profile with in vivo effects on circulating microfilariae.

Substance “2-(3-(5-isoprop- oxypyridin-2- yl)-1,2,4- thiadiazol-5- ylamino)-N,N- dimethyl-5- (trifluoromethyl) nicotinamide [Compound 250]” has an IC50 of less than 200 nM.
